# Results published in ChEMBL document CHEMBL6182926, “Design, Synthesis, and Biological Activity Evaluation of Deuterated Diphenyl Azole Alcohol-Based CYP51 Inhibitors” (J Med Chem, 2025).
# Experiments:
# Aspergillus fumigatus = experiment: Antifungal activity against Aspergillus fumigatus CGMCC 3.7795 assessed as inhibition of visible growth; format: functional
# Candida albicans [1] = experiment: Antifungal activity against Candida albicans SC 5314 assessed as inhibition of visible growth; format: functional
# Candida albicans [2] = experiment: Antifungal activity against Candida albicans CPCC 400616 assessed as inhibition of visible growth; format: functional
# Nakaseomyces glabratus = experiment: Antifungal activity against Clinical isolate Candida glabrata assessed as inhibition of visible growth; format: functional
# Cryptococcus neoformans = experiment: Antifungal activity against Cryptococcus neoformans CGMCC 2.3161 assessed as inhibition of visible growth; format: functional
# Candida parapsilosis = experiment: Antifungal activity against Candida parapsilosis GIM 2.190 assessed as inhibition of visible growth; format: functional; settings: Lodderomyces parapsilosis
# Pichia kudriavzevii = experiment: Antifungal activity against Candida krusei AS 2.1045 assessed as inhibition of visible growth; format: functional
# Candida tropicalis = experiment: Antifungal activity against Candida tropicalis CGMCC 2.3739 assessed as inhibition of visible growth; format: functional
# [3] = Metabolic stability in human liver microsomes assessed as compound remaining measured up to 60 mins by LC-MS/MS analysis; format: ADME, Microsome; settings: for remaining at 1 h: liver microsomes, read-out: Activity
# [4] = Metabolic stability in human liver microsomes assessed as half life by LC-MS/MS analysis; format: ADME, Microsome; settings: for half-life: liver microsomes
SMILES,MIC80 (Aspergillus fumigatus),MIC80 (Candida albicans [1]),MIC80 (Candida albicans [2]),MIC80 (Nakaseomyces glabratus),MIC80 (Cryptococcus neoformans),MIC80 (Candida parapsilosis),MIC80 (Pichia kudriavzevii),MIC80 (Candida tropicalis),"Activity ([3]; microsomes, 1 h)",t1/2 ([4]; microsomes),remaining at 1 h [3],half-life [4]
O[C@@](Cn1cnnn1)(c1ccc(F)cc1F)C(F)(F)c1ccc(-c2ccc(OCC(F)(F)F)cc2)cn1 [OTESECONAZOLE],> 64 µg/mL,0.006 µg/mL,0.006 µg/mL,0.1 µg/mL,0.012 µg/mL,0.006 µg/mL,0.1 µg/mL,0.006 µg/mL,–,–,–,–
CCc1ccc(-c2ccc(CN(C)CC(O)(Cn3cncn3)c3ccc(F)cc3F)nc2)cc1 (centres undefined),–,0.025 µg/mL,0.012 µg/mL,0.1 µg/mL,0.025 µg/mL,0.012 µg/mL,0.05 µg/mL,0.012 µg/mL,–,–,–,–
CN(Cc1ccc(-c2ccc(C(F)(F)F)cc2)cc1)CC(O)(Cn1cncn1)c1ccc(F)cc1F (centres undefined),–,0.012 µg/mL,0.012 µg/mL,0.025 µg/mL,0.05 µg/mL,0.006 µg/mL,0.025 µg/mL,0.012 µg/mL,–,–,–,–
CC(C)c1ccc(-c2ccc(CN(C)CC(O)(Cn3cncn3)c3ccc(F)cc3F)nc2)cc1 (centres undefined),–,0.012 µg/mL,0.012 µg/mL,0.2 µg/mL,0.025 µg/mL,0.012 µg/mL,0.1 µg/mL,0.012 µg/mL,–,–,–,–
CN(Cc1ccc(-c2ccc(C(F)(F)F)cc2)s1)CC(O)(Cn1cncn1)c1ccc(F)cc1F (centres undefined),–,0.012 µg/mL,0.006 µg/mL,0.4 µg/mL,0.1 µg/mL,0.006 µg/mL,0.1 µg/mL,0.006 µg/mL,–,–,–,–
CN(Cc1ccc(-c2ccc(C(C)(C)C)cc2)cn1)CC(O)(Cn1cncn1)c1ccc(F)cc1F (centres undefined),–,0.012 µg/mL,0.025 µg/mL,0.2 µg/mL,0.012 µg/mL,0.012 µg/mL,0.1 µg/mL,0.006 µg/mL,–,–,–,–
Cc1ccc(-c2ccc(CN(C)CC(O)(Cn3cncn3)c3ccc(F)cc3F)nc2)cc1 (centres undefined),–,0.25 µg/mL,0.012 µg/mL,1.6 µg/mL,0.8 µg/mL,0.1 µg/mL,0.2 µg/mL,0.012 µg/mL,–,–,–,–
CN(Cc1ccc(-c2ccc(F)cc2)cn1)CC(O)(Cn1cncn1)c1ccc(F)cc1F (centres undefined),–,0.012 µg/mL,0.012 µg/mL,0.4 µg/mL,0.1 µg/mL,0.012 µg/mL,0.05 µg/mL,0.012 µg/mL,–,–,–,–
CN(Cc1ccc(-c2cccc(Cl)c2)cn1)CC(O)(Cn1cncn1)c1ccc(F)cc1F (centres undefined),–,0.012 µg/mL,0.012 µg/mL,0.2 µg/mL,0.025 µg/mL,0.012 µg/mL,0.1 µg/mL,0.012 µg/mL,–,–,–,–
CN(Cc1ccc(-c2ccc(Cl)cc2)s1)CC(O)(Cn1cncn1)c1ccc(F)cc1F (centres undefined),–,0.006 µg/mL,0.012 µg/mL,0.2 µg/mL,0.1 µg/mL,0.006 µg/mL,0.05 µg/mL,0.006 µg/mL,–,–,–,–
CN(Cc1ccc(-c2cccc(F)c2)cn1)CC(O)(Cn1cncn1)c1ccc(F)cc1F (centres undefined),–,0.025 µg/mL,0.025 µg/mL,0.8 µg/mL,0.05 µg/mL,0.012 µg/mL,0.2 µg/mL,0.012 µg/mL,–,–,–,–
CN(Cc1ccc(-c2ccc(OC(F)(F)F)cc2)o1)CC(O)(Cn1cncn1)c1ccc(F)cc1F (centres undefined),–,0.025 µg/mL,0.012 µg/mL,0.1 µg/mL,0.2 µg/mL,0.05 µg/mL,0.1 µg/mL,0.012 µg/mL,–,–,–,–
CN(Cc1ccc(-c2ccc(Cl)cc2F)cc1)CC(O)(Cn1cncn1)c1ccc(F)cc1F (centres undefined),–,0.006 µg/mL,0.006 µg/mL,0.025 µg/mL,0.012 µg/mL,0.006 µg/mL,0.012 µg/mL,0.006 µg/mL,–,–,–,–

# More lines, now with the values ahead:
MIC80 (Aspergillus fumigatus),MIC80 (Candida albicans [1]),MIC80 (Candida albicans [2]),MIC80 (Nakaseomyces glabratus),MIC80 (Cryptococcus neoformans),MIC80 (Candida parapsilosis),MIC80 (Pichia kudriavzevii),MIC80 (Candida tropicalis),"Activity ([3]; microsomes, 1 h)",t1/2 ([4]; microsomes),remaining at 1 h [3],half-life [4],SMILES
0.05 µg/mL,0.012 µg/mL,0.012 µg/mL,0.025 µg/mL,0.025 µg/mL,0.012 µg/mL,0.025 µg/mL,0.012 µg/mL,–,–,–,–,[2H]C([2H])([2H])N(Cc1ccc(-c2ccc(Cl)c(F)c2)cc1F)[C@H](C)[C@](O)(Cn1cncn1)c1ccc(F)cc1F
0.025 µg/mL,0.012 µg/mL,0.012 µg/mL,0.012 µg/mL,0.012 µg/mL,0.006 µg/mL,0.012 µg/mL,0.006 µg/mL,–,–,–,–,[2H]C([2H])([2H])N(Cc1ccc(-c2ccc(Cl)c(F)c2)nc1)[C@H](C)[C@](O)(Cn1cncn1)c1ccc(F)cc1F
0.025 µg/mL,0.006 µg/mL,0.012 µg/mL,0.012 µg/mL,0.012 µg/mL,0.006 µg/mL,0.012 µg/mL,0.012 µg/mL,–,–,–,–,[2H]C([2H])([2H])N(Cc1ccc(-c2ccc(OC(F)(F)F)cc2)nc1)[C@H](C)[C@](O)(Cn1cncn1)c1ccc(F)cc1F
–,0.006 µg/mL,0.006 µg/mL,0.012 µg/mL,0.012 µg/mL,0.006 µg/mL,0.012 µg/mL,0.006 µg/mL,21.3%,9.23 min,–,–,CN(Cc1ccc(-c2ccc(Cl)cc2)cc1)CC(O)(Cn1cncn1)c1ccc(F)cc1F (centres undefined)
0.05 µg/mL,0.012 µg/mL,0.012 µg/mL,0.025 µg/mL,0.025 µg/mL,0.012 µg/mL,0.05 µg/mL,0.012 µg/mL,–,–,–,–,[2H]C([2H])([2H])N(Cc1ccc(-c2ccc(C(F)(F)F)cc2)cc1F)[C@H](C)[C@](O)(Cn1cncn1)c1ccc(F)cc1F
0.05 µg/mL,0.012 µg/mL,0.006 µg/mL,0.012 µg/mL,0.012 µg/mL,0.006 µg/mL,0.012 µg/mL,0.012 µg/mL,–,–,–,–,[2H]C([2H])([2H])N(Cc1ccc(-c2ccc(Cl)cc2F)nc1)[C@H](C)[C@](O)(Cn1cncn1)c1ccc(F)cc1F
0.025 µg/mL,0.006 µg/mL,0.006 µg/mL,0.012 µg/mL,0.012 µg/mL,0.006 µg/mL,0.012 µg/mL,0.006 µg/mL,–,–,29%,35.1 min,[2H]C([2H])([2H])N(Cc1ccc(-c2ccc(C(F)(F)F)cc2)cc1)[C@H](C)[C@](O)(Cn1cncn1)c1ccc(F)cc1F
0.025 µg/mL,0.012 µg/mL,0.006 µg/mL,0.012 µg/mL,0.012 µg/mL,0.006 µg/mL,0.012 µg/mL,0.012 µg/mL,–,–,–,–,[2H]C([2H])([2H])N(Cc1ccc(-c2ccc(C(F)(F)F)cc2)nc1)[C@H](C)[C@](O)(Cn1cncn1)c1ccc(F)cc1F
0.05 µg/mL,0.012 µg/mL,0.012 µg/mL,0.025 µg/mL,0.025 µg/mL,0.012 µg/mL,0.05 µg/mL,0.012 µg/mL,–,–,–,–,[2H]C([2H])([2H])N(Cc1ccc(-c2ccc(OC(F)(F)F)cc2)cc1F)[C@H](C)[C@](O)(Cn1cncn1)c1ccc(F)cc1F
0.025 µg/mL,0.006 µg/mL,0.006 µg/mL,0.012 µg/mL,0.012 µg/mL,0.006 µg/mL,0.012 µg/mL,0.006 µg/mL,–,–,–,–,[2H]C([2H])([2H])N(Cc1ccc(-c2ccc(Cl)cc2)cc1F)[C@H](C)[C@](O)(Cn1cncn1)c1ccc(F)cc1F
0.025 µg/mL,0.006 µg/mL,0.006 µg/mL,0.025 µg/mL,0.012 µg/mL,0.006 µg/mL,0.012 µg/mL,0.006 µg/mL,–,–,–,–,[2H]C([2H])([2H])N(Cc1ccc(-c2ccc(Cl)cc2)c(F)c1)[C@H](C)[C@](O)(Cn1cncn1)c1ccc(F)cc1F
0.05 µg/mL,0.006 µg/mL,0.006 µg/mL,0.012 µg/mL,0.006 µg/mL,0.006 µg/mL,0.012 µg/mL,0.006 µg/mL,–,–,1.07%,2.3 min,[2H]C([2H])([2H])N(Cc1ccc(-c2ccc(Cl)cc2)nc1)[C@H](C)[C@](O)(Cn1cncn1)c1ccc(F)cc1F
–,0.006 µg/mL,0.006 µg/mL,0.012 µg/mL,0.012 µg/mL,0.006 µg/mL,0.012 µg/mL,0.006 µg/mL,–,–,–,–,C[C@@H](N(C)Cc1ccc(-c2ccc(Cl)cc2)cc1)[C@](O)(Cn1cncn1)c1ccc(F)cc1F
0.05 µg/mL,0.012 µg/mL,0.012 µg/mL,0.025 µg/mL,0.025 µg/mL,0.012 µg/mL,0.05 µg/mL,0.012 µg/mL,–,–,–,–,[2H]C([2H])([2H])N(Cc1ccc(-c2ccc(Cl)cc2F)cc1F)[C@H](C)[C@](O)(Cn1cncn1)c1ccc(F)cc1F
0.012 µg/mL,0.006 µg/mL,0.006 µg/mL,0.025 µg/mL,0.012 µg/mL,0.006 µg/mL,0.012 µg/mL,0.006 µg/mL,–,–,–,–,[2H]C([2H])([2H])N(Cc1ccc(-c2ccc(Cl)cc2F)cc1)[C@H](C)[C@](O)(Cn1cncn1)c1ccc(F)cc1F
–,0.025 µg/mL,0.025 µg/mL,0.05 µg/mL,0.05 µg/mL,0.025 µg/mL,0.05 µg/mL,0.025 µg/mL,–,–,–,–,OC(CNCc1ccc(-c2ccc(Cl)cc2)cc1)(Cn1cncn1)c1ccc(F)cc1F (centres undefined)
0.05 µg/mL,0.006 µg/mL,0.006 µg/mL,0.025 µg/mL,0.012 µg/mL,0.006 µg/mL,0.012 µg/mL,0.006 µg/mL,–,–,–,–,[2H]C([2H])([2H])N(Cc1ccc(-c2ccc(Cl)cc2)cn1)[C@H](C)[C@](O)(Cn1cncn1)c1ccc(F)cc1F
0.025 µg/mL,0.006 µg/mL,0.006 µg/mL,0.012 µg/mL,0.006 µg/mL,0.006 µg/mL,0.012 µg/mL,0.006 µg/mL,–,–,–,–,[2H]C([2H])([2H])N(Cc1ccc(-c2ccc(Cl)cc2)cc1)[C@H](C)[C@](O)(Cn1cncn1)c1ccc(F)cc1F
